Measured values: patent publication US8052987B2, “Method of administering bisphosphonates” (Novartis Pharmaceuticals Corporation, priority 2000, dated 2011)

What was measured:
[1] = test system: patients with postmenopausal osteoporosis; assay: 12 month dose-ranging trial of iv zoledronic acid: percent change from baseline in bone mineral density (DEXA) versus placebo; type: in vivo, human; conditions: for Difference versus placebo for percent change from baseline in bone mineral density of the lumbar spine; postero anterior (L1-L4): at 12 months, ITT population
Description: “A Multinational, Randomized, Double-Blind, Placebo-Controlled, Parallel-Group, Dose-Ranging, Safety and Efficacy Trial With Intravenous Bolus Injections of Zoledronate In the Treatment of Postmenopausal Osteoporosis”
(§1) This was a dose and dose regimen-finding 12 month trial of iv zoledronic acid in patients with postmenopausal osteoporosis. Three hundred and fifty one patients were randomized to six study arms. Patients who had recent exposure to bone active drugs, e.g. bisphosphonates, estrogen, calcitonin, raloxifene, or a history of metabolic bone diseases were excluded. All patients were evaluated at baseline and in 3-monthly visits. Zoledronic acid or placebo was administered as a bolus iv injection into a peripheral vein over 5 minutes at every visit.
Efficacy was ascertained by measurement of percent change from baseline in bone mineral density (BMD) measured by dual energy X-ray absorptiometry (DEXA) as compared to placebo, at 6, 9, and 12 months.
(§2) • Placebo • 0.25 mg zoledronic acid every 3 months • 0.5 mg zoledronic acid every 3 months • 1.0 mg zoledronic acid every 3 months • 2.0 mg zoledronic acid every 6 months • 4.0 mg zoledronic acid every 12 months

[2] = test system: patients with postmenopausal osteoporosis; assay: Suppression of biochemical markers of bone turnover in the same trial; type: in vivo, human; conditions: throughout the 6 and 12 month dosing intervals
Procedure: as §1
Additionally, the degree and duration of suppression of biochemical markers of bone turnover—parathyroid hormone (PTH), bone specific alkaline phosphatase (BSAP), serum C-telopeptide (CTX), serum osteocalcin, urine N-telopeptide (NTX)/creatinine ratio, urine deoxypyridinoline (d-pyd)/creatinine ratio, urine pyridinoline (pyd)/creatinine ratio—was obtained every 3 months and measured in a central laboratory.
as §2

With O=P(O)(O)C(O)(Cn1ccnc1)P(=O)(O)O [zoledronate, 2-(imidazol-1yl)-1-hydroxyethane-1,1-diphosphonic acid] the “Difference versus placebo for percent change from baseline in bone mineral density of the lumbar spine; postero anterior (L1-L4)” value ([1]; 1 × 4.0 mg (4.0 mg iv every 12 months)) was 4.6%, the “Difference versus placebo for percent change from baseline in bone mineral density of the lumbar spine; postero anterior (L1-L4)” value ([1]; 2 × 2.0 mg (2.0 mg iv every 6 months)) was 4.2% and the “Difference versus placebo for percent change from baseline in bone mineral density of the lumbar spine; postero anterior (L1-L4)” value ([1]; 4 × 0.25 mg (0.25 mg iv every 3 months)) was 5.1%. For the same compound, the “Difference versus placebo for percent change from baseline in bone mineral density of the lumbar spine; postero anterior (L1-L4)” value ([1]; 4 × 0.5 mg (0.5 mg iv every 3 months)) was 4.9%, the “Difference versus placebo for percent change from baseline in bone mineral density of the lumbar spine; postero anterior (L1-L4)” value ([1]; 4 × 1.0 mg (1.0 mg iv every 3 months)) was 4.5% and the “percent change from baseline in BMD compared with placebo” value ([1]; all treatment arms, 12 month results) was “significantly (p<0.001) greater than placebo”. The “Bone mineral density compared to placebo” value ([1]; at the spine, hip, distal radius, and total body) was “increased compared to placebo”, the “bone mass increase (BMD data)” value ([1]; dose administration as infrequent as every 6 or 12 months) was “statistically significant and medically relevant bone mass increase” and the “Suppression of biochemical markers of bone formation and bone resorption” value [2] was “suppression of bone turnover to the pre-menopausal level”.
